# Experimental data from ChEMBL document CHEMBL1201862, “PubChem BioAssay data set” (2004).
#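 Cultured in 96-well plates, cells were exposed to test compound for 48 hours across five concentrations. Abbreviation: GI50, concentration required for 50% inhibition of growth.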 Active and inactive are the calls of the source. Cut-off read from the data, not from the text of the source: active = GI50 up to about 1.1 µM and inactive = higher.
# Columns and labels:
# Assay in all cases: growth of human tumour cells (NCI), 48 h
# MOLT-4 = tested on: MOLT-4
# MCF7 = tested on: MCF7
# RPMI-8226 = tested on: RPMI-8226
# CAKI-1 = tested on: CAKI-1
# HCT-15 = tested on: HCT-15
# SNB-75 = tested on: SNB-75
# M14 = tested on: M14
# NCI-H23 = tested on: NCI-H23
# HL-60 = tested on: HL-60
# SNB-19 = tested on: SNB-19
# MDA-MB-435 = tested on: MDA-MB-435
# LOX IMVI = tested on: LOX IMVI
# SR = tested on: SR
# Malme-3M = tested on: Malme-3M
# SN12C = tested on: SN12C
# OVCAR-8 = tested on: OVCAR-8
# SK-MEL-5 = tested on: SK-MEL-5
# Hs-578T = tested on: Hs-578T
# K562 = tested on: K562
# SW-620 = tested on: SW-620
# SK-MEL-28 = tested on: SK-MEL-28
# OVCAR-4 = tested on: OVCAR-4
# UACC-62 = tested on: UACC-62
# COLO 205 = tested on: COLO 205
# EKVX = tested on: EKVX
# U-251 = tested on: U-251
# 786-0 = tested on: 786-0
# T47D = tested on: T47D
# NCI-H460 = tested on: NCI-H460
# MDA-N = tested on: MDA-N
# PC-3 = tested on: PC-3
# BT-549 = tested on: BT-549
# SF-268 = tested on: SF-268
# SK-MEL-2 = tested on: SK-MEL-2
# NCI-H226 = tested on: NCI-H226
# A549 = tested on: A549
# SK-OV-3 = tested on: SK-OV-3
# TK-10 = tested on: TK-10
# DU-145 = tested on: DU-145
# NCI-H522 = tested on: NCI-H522
# HT-29 = tested on: HT-29
# SF-539 = tested on: SF-539
# ACHN = tested on: ACHN
# OVCAR-3 = tested on: OVCAR-3
# MDA-MB-231 = tested on: MDA-MB-231
# HCT-116 = tested on: HCT-116
# HCC 2998 = tested on: HCC 2998
# KM12 = tested on: KM12
# OVCAR-5 = tested on: OVCAR-5
# RXF 393 = tested on: RXF 393
# HOP-62 = tested on: HOP-62
# SF-295 = tested on: SF-295
# CCRF-CEM = tested on: CCRF-CEM
# A498 = tested on: A498
# UO-31 = tested on: UO-31
# UACC-257 = tested on: UACC-257
# HOP-92 = tested on: HOP-92
# IGROV-1 = tested on: IGROV-1
# NCI/ADR-RES = tested on: NCI/ADR-RES
structure (smiles),measurement,setting,value
C=C(C)C1CC[C@@](C)(O)[C@H](C#N)C1 (stereo not given in full),GI50,MOLT-4,> 100 µM (inactive)
same,GI50,MCF7,> 100 µM (inactive)
same,GI50,RPMI-8226,> 100 µM (inactive)
same,GI50,CAKI-1,> 100 µM (inactive)
same,GI50,HCT-15,> 100 µM
same,GI50,SNB-75,44.5 µM (inactive)
same,GI50,M14,> 100 µM (inactive)
same,GI50,NCI-H23,> 100 µM (inactive)
same,GI50,HL-60,> 100 µM (inactive)
same,GI50,SNB-19,> 100 µM (inactive)
same,GI50,MDA-MB-435,> 100 µM (inactive)
same,GI50,LOX IMVI,> 100 µM (inactive)
same,GI50,SR,> 100 µM (inactive)
same,GI50,Malme-3M,> 100 µM (inactive)
same,GI50,SN12C,> 100 µM (inactive)
same,GI50,OVCAR-8,> 100 µM (inactive)
same,GI50,SK-MEL-5,> 100 µM (inactive)
same,GI50,Hs-578T,> 100 µM (inactive)
same,GI50,K562,> 100 µM (inactive)
same,GI50,SW-620,> 100 µM (inactive)
same,GI50,SK-MEL-28,> 100 µM (inactive)
same,GI50,OVCAR-4,> 100 µM (inactive)
same,GI50,UACC-62,> 100 µM (inactive)
same,GI50,COLO 205,> 100 µM (inactive)
same,GI50,EKVX,> 100 µM (inactive)
same,GI50,U-251,> 100 µM (inactive)
same,GI50,786-0,> 100 µM (inactive)
same,GI50,T47D,> 100 µM (inactive)
same,GI50,NCI-H460,> 100 µM (inactive)
same,GI50,MDA-N,> 100 µM (inactive)
same,GI50,PC-3,71 µM (inactive)
same,GI50,BT-549,> 100 µM (inactive)
same,GI50,SF-268,> 100 µM (inactive)
same,GI50,SK-MEL-2,> 100 µM (inactive)
same,GI50,NCI-H226,> 100 µM (inactive)
same,GI50,A549,> 100 µM (inactive)
same,GI50,SK-OV-3,> 100 µM (inactive)
same,GI50,TK-10,> 100 µM (inactive)
same,GI50,DU-145,> 100 µM (inactive)
same,GI50,NCI-H522,> 100 µM (inactive)
same,GI50,HT-29,> 100 µM (inactive)
same,GI50,SF-539,> 100 µM (inactive)
same,GI50,ACHN,> 100 µM (inactive)
same,GI50,OVCAR-3,> 100 µM (inactive)
same,GI50,MDA-MB-231,> 100 µM (inactive)
same,GI50,HCT-116,> 100 µM (inactive)
same,GI50,HCC 2998,> 100 µM (inactive)
same,GI50,KM12,> 100 µM (inactive)
same,GI50,OVCAR-5,> 100 µM (inactive)
same,GI50,RXF 393,> 100 µM (inactive)
same,GI50,HOP-62,> 100 µM (inactive)
same,GI50,SF-295,> 100 µM (inactive)
same,GI50,CCRF-CEM,> 100 µM (inactive)
same,GI50,A498,> 100 µM (inactive)
same,GI50,UO-31,> 100 µM (inactive)
same,GI50,UACC-257,> 100 µM (inactive)
CN(/N=C/c1ccccn1)C1=NCCN1,GI50,MOLT-4,> 100 µM (inactive)
same,GI50,HOP-92,> 100 µM (inactive)
same,GI50,MCF7,> 100 µM (inactive)
same,GI50,RPMI-8226,> 100 µM (inactive)
same,GI50,CAKI-1,> 100 µM (inactive)
same,GI50,HCT-15,> 100 µM
same,GI50,SNB-75,> 100 µM (inactive)
same,GI50,M14,> 100 µM (inactive)
same,GI50,NCI-H23,> 100 µM (inactive)
same,GI50,HL-60,> 100 µM (inactive)
same,GI50,IGROV-1,> 100 µM (inactive)
same,GI50,SNB-19,> 100 µM (inactive)
same,GI50,MDA-MB-435,> 100 µM (inactive)
same,GI50,LOX IMVI,> 100 µM (inactive)
same,GI50,SR,> 100 µM (inactive)
same,GI50,Malme-3M,> 100 µM (inactive)
same,GI50,OVCAR-8,> 100 µM (inactive)
same,GI50,SK-MEL-5,> 100 µM (inactive)
same,GI50,Hs-578T,> 100 µM (inactive)
same,GI50,NCI/ADR-RES,> 100 µM (inactive)
same,GI50,K562,> 100 µM (inactive)
same,GI50,SW-620,> 100 µM (inactive)
same,GI50,SK-MEL-28,> 100 µM (inactive)
same,GI50,OVCAR-4,> 100 µM (inactive)
same,GI50,UACC-62,> 100 µM (inactive)
same,GI50,COLO 205,> 100 µM (inactive)
same,GI50,EKVX,> 100 µM (inactive)
same,GI50,U-251,> 100 µM (inactive)
same,GI50,786-0,> 100 µM (inactive)
same,GI50,T47D,> 100 µM (inactive)
same,GI50,NCI-H460,> 100 µM (inactive)
same,GI50,MDA-N,> 100 µM (inactive)
same,GI50,PC-3,> 100 µM (inactive)
same,GI50,BT-549,> 100 µM (inactive)
same,GI50,SF-268,> 100 µM (inactive)
same,GI50,SK-MEL-2,> 100 µM (inactive)
same,GI50,NCI-H226,> 100 µM (inactive)
same,GI50,A549,> 100 µM (inactive)
same,GI50,SK-OV-3,> 100 µM (inactive)
same,GI50,NCI-H522,> 100 µM (inactive)
same,GI50,HT-29,> 100 µM (inactive)
same,GI50,SF-539,> 100 µM (inactive)
same,GI50,ACHN,> 100 µM (inactive)
same,GI50,OVCAR-3,> 100 µM (inactive)
same,GI50,MDA-MB-231,> 100 µM (inactive)
same,GI50,HCT-116,> 100 µM (inactive)
same,GI50,HCC 2998,> 100 µM (inactive)
same,GI50,KM12,> 100 µM (inactive)
same,GI50,OVCAR-5,> 100 µM (inactive)
same,GI50,RXF 393,> 100 µM (inactive)
same,GI50,HOP-62,> 100 µM (inactive)
same,GI50,SF-295,> 100 µM (inactive)
same,GI50,CCRF-CEM,> 100 µM (inactive)
same,GI50,A498,> 100 µM (inactive)
same,GI50,UO-31,> 100 µM (inactive)
same,GI50,UACC-257,> 100 µM (inactive)
CN1CCN(C(=S)N(C)C(=O)c2ccco2)CC1,GI50,MOLT-4,> 100 µM (inactive)
same,GI50,HOP-92,> 100 µM (inactive)
same,GI50,MCF7,> 100 µM (inactive)
same,GI50,RPMI-8226,> 100 µM (inactive)
same,GI50,HCT-15,> 100 µM
same,GI50,M14,> 100 µM (inactive)
same,GI50,NCI-H23,> 100 µM (inactive)
same,GI50,HL-60,> 10 µM (inactive)
same,GI50,IGROV-1,> 100 µM (inactive)
same,GI50,SNB-19,> 100 µM (inactive)
same,GI50,MDA-MB-435,> 100 µM (inactive)
same,GI50,LOX IMVI,> 100 µM (inactive)
same,GI50,SR,> 100 µM (inactive)
same,GI50,Malme-3M,> 100 µM (inactive)
same,GI50,SN12C,> 100 µM (inactive)
same,GI50,OVCAR-8,> 100 µM (inactive)
same,GI50,SK-MEL-5,> 100 µM (inactive)
same,GI50,Hs-578T,> 100 µM (inactive)
same,GI50,K562,> 100 µM (inactive)
same,GI50,SW-620,> 100 µM (inactive)
same,GI50,OVCAR-4,> 100 µM (inactive)
same,GI50,UACC-62,> 100 µM (inactive)
same,GI50,COLO 205,> 100 µM (inactive)
same,GI50,U-251,> 100 µM (inactive)
same,GI50,786-0,> 100 µM (inactive)
same,GI50,T47D,> 100 µM (inactive)
same,GI50,NCI-H460,> 100 µM (inactive)
same,GI50,MDA-N,> 100 µM (inactive)
same,GI50,BT-549,> 100 µM (inactive)
same,GI50,SK-MEL-2,> 100 µM (inactive)
same,GI50,NCI-H226,> 100 µM (inactive)
same,GI50,A549,> 100 µM (inactive)
same,GI50,TK-10,> 100 µM (inactive)
same,GI50,DU-145,> 100 µM (inactive)
same,GI50,NCI-H522,> 100 µM (inactive)
same,GI50,HT-29,> 100 µM (inactive)
same,GI50,ACHN,> 100 µM (inactive)
same,GI50,OVCAR-3,> 100 µM (inactive)
same,GI50,MDA-MB-231,> 100 µM (inactive)
same,GI50,HCC 2998,> 100 µM (inactive)
same,GI50,KM12,> 100 µM (inactive)
same,GI50,OVCAR-5,> 100 µM (inactive)
same,GI50,RXF 393,> 100 µM (inactive)
same,GI50,SF-295,> 100 µM (inactive)
same,GI50,CCRF-CEM,> 100 µM (inactive)
same,GI50,UO-31,> 100 µM (inactive)
same,GI50,UACC-257,> 100 µM (inactive)
Nc1ccc2cc3ccc(N)cc3nc2c1,GI50,MOLT-4,0.524 µM (active)
same,GI50,MCF7,0.757 µM (active)
same,GI50,CAKI-1,1.56 µM (inactive)
same,GI50,SNB-75,1.34 µM (inactive)
same,GI50,HL-60,1.56 µM (inactive)
same,GI50,SR,0.667 µM (active)
same,GI50,SN12C,0.979 µM (active)
same,GI50,OVCAR-8,0.678 µM (active)
same,GI50,SK-MEL-5,1.4 µM (inactive)
same,GI50,Hs-578T,2.43 µM (inactive)
same,GI50,NCI/ADR-RES,1.03 µM (active)
same,GI50,SW-620,0.395 µM (active)
same,GI50,SK-MEL-28,2 µM (inactive)
same,GI50,UACC-62,1.41 µM (inactive)
same,GI50,COLO 205,0.771 µM (active)
same,GI50,EKVX,1.56 µM (inactive)
same,GI50,T47D,2.63 µM (inactive)
same,GI50,NCI-H460,0.46 µM (active)
same,GI50,MDA-N,1.41 µM (inactive)
same,GI50,BT-549,3.72 µM (inactive)
same,GI50,SF-268,1.37 µM (inactive)
same,GI50,TK-10,2.69 µM (inactive)
same,GI50,DU-145,3.33 µM (inactive)
same,GI50,HT-29,0.499 µM (active)
same,GI50,SF-539,1.02 µM (active)
same,GI50,ACHN,0.826 µM (active)
same,GI50,OVCAR-3,2.09 µM (inactive)
same,GI50,MDA-MB-231,1.94 µM (inactive)
same,GI50,HCT-116,0.482 µM (active)
same,GI50,HCC 2998,1.25 µM (inactive)
same,GI50,OVCAR-5,1.63 µM (inactive)
same,GI50,HOP-62,1.62 µM (inactive)
same,GI50,SF-295,2.42 µM (inactive)
same,GI50,CCRF-CEM,1 µM (active)
same,GI50,UO-31,0.993 µM (active)
same,GI50,UACC-257,2 µM (inactive)
